{"source": "patent US20170157251A1", "about": "“Bi-Specific Monovalent Diabodies That are Capable of Binding CD19 and CD3, and Uses Thereof” (MacroGenics, Inc., priority 2015, published 2017)", "key": {"[1]": {"system": "HBL-2 tumor cells", "assay": "Established HBL-2 xenograft model with human PBMCs", "type": "in vivo, NSG B2m−/− mice", "description": "Mice were implanted with HBL-2 tumor cells (5×10^6 cells) intradermally (ID) on Day 0 followed by intraperitoneal (IP) injection of PBMCs (5×10^7 cells) on Day 4.\nHowever, prior to the third (Study Day 24) and fourth (Study Day 28) doses, the tumor volumes were 1469±162 and 848±74 mm^3, respectively, representing a 36% and 63%, respectively, decrease in tumor volume with respect to the peak volume recorded on Study Day 21 (FIG. 19B). The tumors continued to decrease in size to the extent that on Day 42, the average tumor volume was 248±52 mm^3, an 89% decrease in the tumor volume (FIG. 19B)."}, "[2]": {"assay": "Human FcRn transgenic mouse pharmacokinetic study", "type": "in vivo", "conditions": "human FcRn transgenic mice", "method": "Three human mAbs were also evaluated in same test system for comparison and had terminal half-lives ranging from 58.7 to 102.7 hours."}, "[3]": {"system": "CD20+ B cells", "assay": "Autologous B cell depletion in cynomolgus monkey PBMCs", "type": "cell-based", "description": "(§1) Potential differences in CD19 expression levels between human and cynomolgus monkey B cells may be another variable factor contributing to the apparent difference in potency."}, "[4]": {"system": "Raji/GF cells", "assay": "Redirected killing of target tumor cells using human T cells, Raji/GF", "type": "cell-based", "conditions": "HBL-2, Raji/GF, Jeko-1; E:T 10:1"}, "[5]": {"system": "CD20+ B cells", "assay": "Autologous B cell depletion in human PBMCs", "type": "cell-based", "description": "as §1"}, "[6]": {"system": "human T cells", "assay": "Cytokine release by human T cells in the presence of Raji/GF target cells (ELISA)", "type": "cell-based", "conditions": "co-incubation with Raji/GF target cells"}, "[7]": {"system": "cynomolgus monkey CD4+ and CD8+ T cells", "assay": "Cynomolgus monkey T cell activation (CD25, CD69) during redirected killing of Raji/GF cells", "type": "cell-based", "conditions": "Raji/GF target cells", "description": "(§2) The effect on T cells during DART-A-mediated redirected target cell (Raji/GF cells) lysis was characterized by evaluating expression of the T cell activation markers CD69 and CD25."}, "[8]": {"system": "Raji.luc lymphoma cells", "assay": "Disseminated Raji.luc model in human PBMC-reconstituted mice, early treatment", "conditions": "12 doses"}, "[9]": {"system": "human T cells with JIMT-1 cells", "assay": "Human T cell activation in the presence of CD19-negative JIMT-1 cells", "type": "cell-based"}, "[10]": {"system": "human CD4+ and CD8+ T cells", "assay": "Human T cell activation (CD25, CD69) during redirected killing of Raji/GF cells", "type": "cell-based", "conditions": "Raji/GF target cells", "description": "as §2"}, "[11]": {"system": "CLL malignant B cells (CD20+/CD5+)", "assay": "Autologous depletion of malignant B cells in CLL primary patient PBMCs", "type": "cell-based, human", "method": "Due to the limited patient sample availability, only 2 concentrations (50 ng/mL and 200 ng/mL) were tested. The percentages of CLL malignant B cells (CD19+/CD5+ or CD20+/CD5+) and T cells (CD19−/CD5+ or CD4+ and CD8+) were measured by flow cytometry prior to treatment and following treatment for 3 and 6 days."}, "[12]": {"system": "HBL-2 tumor cells", "assay": "HBL-2 co-mix xenograft with activated human T cells", "type": "in vivo, NOD/SCID mice", "conditions": "by Day 13", "description": "(§3) In both studies, human T cells and tumor cells (HBL-2 or Raji) were combined at a ratio of 1:5 (1×10^6 and 5×10^6 cells, respectively) and injected SC into mice on Day 0."}, "[13]": {"system": "CFSE-labeled human T cells", "assay": "Proliferation of CFSE-labeled human T cells co-cultured with HBL-2 target cells", "type": "cell-based", "conditions": "200 ng/mL, E:T 10:1, 72 hours", "method": "The expansion of T cells during effector:target cell co-engagement by […] was also evaluated, given that proliferation concomitant with T cell activation has been previously reported. […] Proliferation of CFSE-labeled T cells was monitored by levels of CFSE dilution over time by FACS analysis (FIGS. 16A-16B)."}, "[14]": {"system": "Raji.luc cells", "assay": "Disseminated Raji.luc model in human PBMC-reconstituted mice, established tumor", "conditions": "treatment from Study Day 15, 9 doses; DART-A 0.16 μg/kg to 0.5 mg/kg, Control DART 1 0.1 mg/kg"}, "[15]": {"system": "human CD8+ and CD4+ T cells", "assay": "Intracellular granzyme B and perforin in T cells in CTL assay", "type": "cell-based", "conditions": "24 hours, Raji/GF target cells, E:T 10:1", "description": "Of note, the upregulation of granzyme B (FIG. 15A) and perforin (FIG. 15B) was higher in CD8+ T cells compared with CD4+ T cells, consistent with the expected higher CTL potency of CD8+ T cells."}, "[16]": {"system": "Raji tumor cells", "assay": "Raji co-mix xenograft with activated human T cells", "type": "in vivo, NOD/SCID mice", "conditions": "end of the study (Day 28)", "description": "as §3"}}, "data": [{"substance": "Control DART 1: control DART capable of binding to fluorescein and CD3 [reference compound]", "values": [{"measurement": "average tumor volume", "setting": "[1]; Day 21 (2nd dose), treatment from Day 17, DART-A 0.5 mg/kg IV", "result": "1185.6±138.7", "unit": "mm^3"}, {"measurement": "average tumor volume", "setting": "[1]; Day 24 (3rd dose), treatment from Day 17", "result": "2623.7±351.5", "unit": "mm^3"}, {"measurement": "terminal half-life", "setting": "[2]", "result": 92.1, "unit": "h"}, {"measurement": "CD20+ B cell depletion", "setting": "[3]", "result": "no B cell depletion was observed"}, {"measurement": "T cell redirected killing of target cells", "setting": "[4]", "result": "did not mediate T cell redirected killing of target cells"}, {"measurement": "CD20+ B cell depletion", "setting": "[5]", "result": "no B cell depletion was observed"}, {"measurement": "cytokine production", "setting": "[6]", "result": "did not result in any detectable cytokine production"}, {"measurement": "T cell activation markers CD25 and CD69", "setting": "[7]", "result": "did not mediate induction of T cell activation markers"}, {"measurement": "efficacy in dose-range finding study", "setting": "[8]; 0.16 μg/kg to 0.5 mg/kg", "result": "rapid progression of Raji.luc tumor growth"}, {"measurement": "Study Day by which all mice died or were humanely sacrificed", "setting": "[8]; 0.5 mg/kg IV", "result": "≤ 53", "unit": "Study Day"}, {"measurement": "T cell activation", "setting": "[9]", "result": "fail to mediate human T cell activation"}, {"measurement": "T cell activation markers CD25 and CD69", "setting": "[10]", "result": "did not mediate induction of T cell activation markers"}, {"measurement": "CD4+", "setting": "[11]; Day 3, 50 ng/mL", "result": 3.08, "unit": "%"}, {"measurement": "CD8+", "setting": "[11]; Day 3, 50 ng/mL", "result": 1.81, "unit": "%"}, {"measurement": "CD20+/CD5+", "setting": "[11]; Day 3, 50 ng/mL, E:T = 1:23", "result": 73.5, "unit": "%"}, {"measurement": "CD4+", "setting": "[11]; Day 3, 200 ng/mL", "result": 3.23, "unit": "%"}, {"measurement": "CD8+", "setting": "[11]; Day 3, 200 ng/mL", "result": 1.62, "unit": "%"}, {"measurement": "CD20+/CD5+", "setting": "[11]; Day 3, 200 ng/mL", "result": 72.9, "unit": "%"}, {"measurement": "CD4+", "setting": "[11]; Day 6, 50 ng/mL", "result": 3.54, "unit": "%"}, {"measurement": "CD8+", "setting": "[11]; Day 6, 50 ng/mL", "result": 2.26, "unit": "%"}, {"measurement": "CD20+/CD5+", "setting": "[11]; Day 6, 50 ng/mL", "result": 74.9, "unit": "%"}, {"measurement": "CD25+/CD4+", "setting": "[11]; Day 6, 50 ng/mL", "result": 1.4, "unit": "%"}, {"measurement": "CD25+/CD8+", "setting": "[11]; Day 6, 50 ng/mL", "result": 20.6, "unit": "%"}, {"measurement": "CD4+", "setting": "[11]; Day 6, 200 ng/mL", "result": 2.79, "unit": "%"}, {"measurement": "CD8+", "setting": "[11]; Day 6, 200 ng/mL", "result": 1.82, "unit": "%"}, {"measurement": "CD20+/CD5+", "setting": "[11]; Day 6, 200 ng/mL", "result": 73.4, "unit": "%"}, {"measurement": "CD25+/CD4+", "setting": "[11]; Day 6, 200 ng/mL", "result": 1.4, "unit": "%"}, {"measurement": "CD25+/CD8+", "setting": "[11]; Day 6, 200 ng/mL", "result": 14.3, "unit": "%"}, {"measurement": "B cell killing or upregulation of CD25", "setting": "[11]; through Day 6", "result": "no B cell killing or upregulation of CD25 was observed"}, {"measurement": "average tumor volume", "setting": "[12]", "result": "approximately 1000 mm^3"}, {"measurement": "cells proliferating (CFSE dilution)", "setting": "[13]", "result": "no proliferation of CFSE-labeled T cells was observed"}, {"measurement": "tumor burden / tumor progression, dose-range finding", "setting": "[14]", "result": "slight delay of tumor progression"}, {"measurement": "granzyme B and perforin levels in CD8+ and CD4+ T cells", "setting": "[15]", "result": "no upregulation of granzyme B or perforin was observed"}, {"measurement": "average tumor volume", "setting": "[16]", "result": "2968.2±200.0", "unit": "mm3"}]}]}
